Laboratory results published in patent US20250346600A1, “TRICYCLIC DERIVATIVES AND RELATED USES” (MOMA Therapeutics, Inc., priority 2023, published 2025).

Legend:
HT29 cells = test: HT29 (MSS) 7 day viability, CellTiter Glo; type: cell-based; conditions: Homo sapiens, HT-29, 168 h, 7 days, read-out: HT29 (MSS) Viability 7 Day CTGAbs AC50
Outline: (§1)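 HCT116 seeded at 50 cells/well and HT29 at 500 cells/well onto compound plates (10-point 3-fold dilutions from 10 mM DMSO stock), incubated 7 days at 37 °C, 5% CO2.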

[1] = molecular target: T1, Full length WRN protein (aa 2-1432) (Homo sapiens (Human), UniProt Q14191); test: WRN ATPase ADP-Glo biochemical assay, Assay Format A (10 μM ATP); conditions: 0.25 nM WRN, 100 nM C6.18 ssDNA, 30 min preincubation, read-out: ATPase ADPGlo AC50 (uM)- Assay Format A
Excerpt: Full length Werner helicase construct (Uniprot: Q14191) with an N-terminal FLAG-AVI-TEV tag was expressed using the Sf9 cell/baculovirus expression system. The harvested cell pellet was resuspended and lysed in a glass homogenizer. After insoluble material was removed by centrifugation, the helicase protein was first purified with FLAG affinity resin and then further purified through a size-exclusion chromatography column. Peak fractions containing the purified protein were concentrated, split into aliquots and frozen in liquid nitrogen to be thawed before use. Biochemical Assay Description (ATPase activity)-Assay Format A WRN activity was measured using an ATPase assay. Full length WRN protein (aa 2-1432) (production described separately) was used for the biochemical activity assays. The 39-mer ssDNA “C6.18” [NT] was purchased from IDT and used as a substrate. Quantification of ATP hydrolysis was evaluated using the ADP-Glo assay kit (Promega, Madison, WI). An enzyme titration time-course was performed to determine the optimal assay conditions. […] To evaluate the inhibitory effects of the compounds, 11-point 3-fold serial dilutions were prepared in DMSO. 50 nL of each concentration in duplicate was preincubated for 30 minutes in a 384-well microplate (Greiner #784075) with 5 μL of 0.5 nM WRN in assay buffer. The reaction was initiated by adding 5 μL of 200 nM C6.18 DNA with 20 μM ATP and was allowed to proceed for 30 minutes at room temperature. The reaction was stopped with 10 μL ADP-Glo reagent for 1 hour to remove unreacted ATP. Lastly, 20 μL ATP detection reagent was added and incubated for 1 hour to generate the luminescence signal. Control wells included “high controls” with no inhibition (DMSO, no compound) and “low controls” with maximum inhibition (no WRN). Luminescence was recorded on a PHERAstar (BMG Labtech, Ortenberg, Germany). Data was fit using the “Smart Fit” method within the Genedata Screener Software (Basel, Switzerland) to obtain IC50 values using four-parameter fits. Reported IC50s are the geometric means of at least two independent trials.

HCT116 cells = test: HCT116 (MSI) 7 day viability, CellTiter Glo; type: cell-based; conditions: Homo sapiens, HCT-116, 168 h, 7 days, read-out: HCT116 (MSI) Viability 7 Day Abs AC50
Outline: as §1

[2] = molecular target: T1, Full length WRN protein (aa 2-1432); test: WRN ATPase ADP-Glo biochemical assay, Assay Format B (100 μM ATP); conditions: 0.25 nM WRN, 100 nM C6.18 ssDNA, 60 min preincubation, read-out: ATPase ADPGlo AC50 (uM)- Assay Format B

T1 sequence (Q14191 2-1432): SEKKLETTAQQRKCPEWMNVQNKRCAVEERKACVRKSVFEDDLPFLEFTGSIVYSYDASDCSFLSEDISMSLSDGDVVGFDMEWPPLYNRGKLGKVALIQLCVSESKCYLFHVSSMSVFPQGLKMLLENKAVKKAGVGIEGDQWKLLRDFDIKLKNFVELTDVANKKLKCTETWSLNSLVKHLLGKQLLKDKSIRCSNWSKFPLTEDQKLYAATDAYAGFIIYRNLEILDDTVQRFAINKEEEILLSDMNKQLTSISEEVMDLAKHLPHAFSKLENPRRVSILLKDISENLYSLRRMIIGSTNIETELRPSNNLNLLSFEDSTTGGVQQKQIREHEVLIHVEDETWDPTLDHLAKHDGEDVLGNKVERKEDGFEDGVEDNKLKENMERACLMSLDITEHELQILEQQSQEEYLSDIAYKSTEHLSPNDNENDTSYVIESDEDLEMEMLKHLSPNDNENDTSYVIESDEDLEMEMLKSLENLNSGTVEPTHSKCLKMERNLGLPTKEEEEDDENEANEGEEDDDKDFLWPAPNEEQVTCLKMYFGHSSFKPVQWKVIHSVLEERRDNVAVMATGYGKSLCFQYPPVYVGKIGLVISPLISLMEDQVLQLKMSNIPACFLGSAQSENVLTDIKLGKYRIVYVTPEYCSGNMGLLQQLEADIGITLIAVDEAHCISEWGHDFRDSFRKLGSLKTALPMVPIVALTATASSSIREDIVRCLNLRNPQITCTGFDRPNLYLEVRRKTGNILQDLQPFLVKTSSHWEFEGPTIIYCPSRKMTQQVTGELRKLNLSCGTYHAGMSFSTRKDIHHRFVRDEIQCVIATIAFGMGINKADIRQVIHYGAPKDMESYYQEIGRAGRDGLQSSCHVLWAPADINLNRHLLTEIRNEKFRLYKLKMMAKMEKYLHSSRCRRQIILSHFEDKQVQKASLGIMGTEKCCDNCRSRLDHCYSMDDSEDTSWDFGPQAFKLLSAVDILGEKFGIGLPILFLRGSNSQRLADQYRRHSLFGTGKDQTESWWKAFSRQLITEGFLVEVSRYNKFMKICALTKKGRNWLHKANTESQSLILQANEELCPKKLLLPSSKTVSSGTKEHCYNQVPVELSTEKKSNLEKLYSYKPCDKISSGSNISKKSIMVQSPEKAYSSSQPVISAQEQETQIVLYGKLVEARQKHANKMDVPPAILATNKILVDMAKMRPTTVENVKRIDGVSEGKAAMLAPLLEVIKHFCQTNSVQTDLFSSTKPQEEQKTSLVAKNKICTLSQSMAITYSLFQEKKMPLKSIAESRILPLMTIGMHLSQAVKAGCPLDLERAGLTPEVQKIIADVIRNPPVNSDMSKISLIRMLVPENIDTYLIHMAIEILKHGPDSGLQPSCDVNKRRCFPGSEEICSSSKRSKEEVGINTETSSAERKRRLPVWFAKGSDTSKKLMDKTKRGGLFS

Compound	AC50 (HT29 cells) [nM]	AC50 [1] [µM]	AC50 (HCT116 cells) [nM]	AC50 [2] [µM]
C=CC(=O)N1CCc2nn(-c3ccc(C(C)C)cc3)c3c2C(C1)N(C(=O)c1ccc(Br)c2[nH]c(N)nc12)CC3 (centres unmarked) [Compound 8, 1-(5-(2-amino-7-bromo-1H-benzo[d]imidazole-4-carbonyl)-2-(4-isopropylphenyl)-2,3,4,5,5a,6,8,9-octahydro-7H-1,2,5,7-tetraazabenzo[cd]azulen-7-yl)prop-2-en-1-one]	> 3000	< 0.0015	1 to 100	0.005 to 0.015
C=CC(=O)N1CCc2nn(-c3ccc(C(C)C)cc3)c3c2C(C1)N(C(=O)c1ccc(Br)c2[nH]c(N4CCC4)nc12)CC3 (centres unmarked) [Compound 9, 1-(5-(2-(azetidin-1-yl)-7-bromo-1H-benzo[d]imidazole-4-carbonyl)-2-(4-isopropylphenyl)-2,3,4,5,5a,6,8,9-octahydro-7H-1,2,5,7-tetraazabenzo[cd]azulen-7-yl)prop-2-en-1-one]	> 3000	0.0015 to 0.005	1 to 100	0.015 to 0.055
C=CC(=O)N1CCc2nn(-c3ccc(C(C)C)cc3)c3c2C(C1)N(C(=O)c1ncc(Br)c2[nH]cnc12)CC3 (centres unmarked) [Compound 10, 1-(5-(7-bromo-1H-imidazo[4,5-c]pyridine-4-carbonyl)-2-(4-isopropylphenyl)-2,3,4,5,5a,6,8,9-octahydro-7H-1,2,5,7-tetraazabenzo[cd]azulen-7-yl)prop-2-en-1-one]	> 3000	< 0.0015	1 to 100	0.015 to 0.055
C=CC(=O)N1CCc2nn(-c3ccc(C(C)C)cc3)c3c2C(C1)N(C(=O)c1cnc(C(F)(F)F)c(OC)c1)CC3 (centres unmarked) [Compound 12, 1-(2-(4-isopropylphenyl)-5-(5-methoxy-6-(trifluoromethyl)nicotinoyl)-2,3,4,5,5a,6,8,9-octahydro-7H-1,2,5,7-tetraazabenzo[cd]azulen-7-yl)prop-2-en-1-one]	> 3000	< 0.0015	1 to 100	0.015 to 0.055
C=CC(=O)N1CCc2nn(-c3ccc(C(C)C)cc3)c3c2C(C1)N(C(=O)c1ccc(C(F)(F)F)nc1)CC3 (centres unmarked) [Compound 13, 1-(2-(4-isopropylphenyl)-5-(6-(trifluoromethyl)nicotinoyl)-2,3,4,5,5a,6,8,9-octahydro-7H-1,2,5,7-tetraazabenzo[cd]azulen-7-yl)prop-2-en-1-one]	> 3000	0.0015 to 0.005	100 to 250	0.015 to 0.055
C=CC(=O)N1CCc2nn(-c3ccc(C(C)C)cc3)c3c2C(C1)N(C(=O)c1cnc(C(F)(F)F)c(O)c1)CC3 (centres unmarked) [Compound 14, 1-(5-(5-hydroxy-6-(trifluoromethyl)nicotinoyl)-2-(4-isopropylphenyl)-2,3,4,5,5a,6,8,9-octahydro-7H-1,2,5,7-tetraazabenzo[cd]azulen-7-yl)prop-2-en-1-one]	> 3000	0.0015 to 0.005	1 to 100	0.015 to 0.055
CC(C)c1ccc(-n2nc3c4c2CCN(C(=O)c2ccc(Br)c5[nH]cnc25)C4CN(C(=O)/C=C/CN(C)C)CC3)cc1 (centres unmarked) [Compound 15, 1-(5-(7-bromo-1H-benzo[d]imidazole-4-carbonyl)-2-(4-isopropylphenyl)-2,3,4,5,5a,6,8,9-octahydro-7H-1,2,5,7-tetraazabenzo[cd]azulen-7-yl)-4-(dimethylamino)but-2-en-1-one]	> 3000	0.015 to 0.055	250 to 500	> 0.055
C=C(F)C(=O)N1CCc2nn(-c3ccc(C(C)C)cc3)c3c2C(C1)N(C(=O)c1ccc(Br)c2[nH]cnc12)CC3 (centres unmarked) [Compound 17, 1-(5-(7-bromo-1H-benzo[d]imidazole-4-carbonyl)-2-(4-isopropylphenyl)-2,3,4,5,5a,6,8,9-octahydro-7H-1,2,5,7-tetraazabenzo[cd]azulen-7-yl)-2-fluoroprop-2-en-1-one]	> 3000	0.015 to 0.055	> 1000	> 0.055
